Read-outs that look alike come from different tables or passages of the source.
What was measured:
[1] = Trafficking of Protin-102 in a B6 mouse, imaging 24 hours post-injection; format: in vivo
Description: The clathrin heavy chains were labeled with CF680 dye, a cyanine-based dye that reacts with alkyne and is commonly used for labeling antibodies. The clathrin heavy chains were then injected into a C57BL/6 (B6) mouse, and imaging was performed 24 hours post-injection.

ovarian carcinoma = conditions: cited from earlier work
[2] = system: Lewis lung carcinoma line 1 (LLC1); assay: Therapeutic study in C57BL/6 mice bearing LLC1 tumors; format: in vivo, mouse; conditions: LLC1-bearing C57BL/6 mice; total dose of TAXOL® 32 μg/kg; n=6
Description: (§1) When the tumor size reached approximately 100 mm3, mice were randomly divided into three groups (n=6). […] The injection schedule was twice a week for two weeks. The tumor size and body weight of the mice were monitored during the treatment course. The length (l) and width (w) of the tumor were measured by a digital vernier caliper, and tumor volume (V) was defined as: […]V=l×w2/2. The tumor growth inhibition (TGI) was estimated by a following equation: TGI (%)=(Vc−Vt)/(Vc−Vi)×100, where Vc is the volume of the control tumor at the end of the study, Vt is the volume of drug-treated tumor at the end of the study, and Vi is the volume of tumor at the initial treatment.

breast cancer = conditions: cited from earlier work
4T1 murine breast cancer = assay: Therapeutic study in BALB/c mice bearing 4T1 tumors; format: in vivo, mouse
Description: as §1
Before the diameter of tumor reached approximately 20 mm, the mice were euthanized, and lungs, livers, kidneys, hearts, pancreas, spleen, tumor, non-drain inguinal lymph nodes (far from tumor), and drain inguinal lymph nodes (located near tumor) were harvested and embedded in optimum cutting temperature (OCT) compound (TISSUE TEK™; SAKURA FINETEK™; Torrance, Calif.).
Representative photos for tumors from each group on day 27 post-implant are shown in top images of FIG. 14B. We evaluated the tumor growth inhibition (TGI) rate of each group (see the details in Method).

B16 melanoma = assay: Therapeutic study in C57BL/6 mice bearing B16 tumors; format: in vivo, mouse
Excerpt: as §1, with “BALB/c (female; 7-8 weeks) were subcutaneously implanted by 4T1 (100,000 cells; ATCC® CRL-2539™) on left 4th mammary glands. C57BL/6 (female; 7-8 weeks) were subcutaneously inoculated by B16 melanoma cells (100,000 cells; ATCC® CRL-6322™) or Lewis lung carcinoma line 1 cells (LLC1) (100,000 cells; ATCC® CRL-1642™) on right rear flanks. When” for “When”
Encouraged by the therapeutic effects for 4T1 tumor model, these protein-drug conjugates were further investigated for cancer therapy in a B16 (melanoma) or LLC1 (lung cancer)-bearing C57BL/6 mice. Drugs were now injected into mice having a tumor volume of approximately 100 mm3 according to the injection schedule identical to the 4T1 study.

In the case of Protin-102: clathrin heavy chain, the “distribution among lymph nodes” value ([1]; compared with axillary and inguinal lymph nodes) was “concentration in the mesenteric lymph nodes” and the “organ with the highest level of signal” value ([1]; labeled with CF680) was “liver”.
In the case of `CC(=O)O[C@H]1C(=O)[C@@]2(C)[C@H]([C@H](OC(=O)c3ccccc3)[C@]3(O)C[C@H](OC(=O)[C@H](O)[C@@H](NC(=O)c4ccccc4)c4ccccc4)C(C)=C1C3(C)C)[C@]1(OC(C)=O)CO[C@@H]1C[C@@H]2O` [TAXOL®, 5beta, 20-epoxy-1,2alpha, 4,7beta, 10beta, 13alpha-hexahydroxytax-11-en-9-one 4,10-diacetate 2-benzoate 13-ester with (2R,3S)—N-benzoyl-3-phenylisoserine], the Response rate (ovarian carcinoma; regimen 135/24) is listed as 13.2%, the “Survival, median” value (ovarian carcinoma; regimen 135/24) is listed as 10.7 months and the “Time to Progression, median” value (ovarian carcinoma; regimen 135/24) is listed as 2.8 months. For the same compound, the Response rate (ovarian carcinoma; regimen 155/3 as printed) was 15.2%, the “Time to Progression, median” value (ovarian carcinoma; regimen 155/3 as printed) was 3.1 months and the Response rate (ovarian carcinoma; regimen 175/3 (mg/m2 / infusion h)) was 14.6%. The “Survival, median” value (ovarian carcinoma; regimen 175/3) was 11.5 months, the “Time to Progression, median” value (ovarian carcinoma; regimen 175/3) was 4.4 months and the Response rate (ovarian carcinoma; regimen 175/4) was 21.7%. For the same compound, the “Survival, median” value (ovarian carcinoma; regimen 175/4) was 11.8 months, the “Time to Progression, median” value (ovarian carcinoma; regimen 175/4) was 4.2 months and the “tumor volume on the final day” value [2] was 1.21±0.31 ×103 mm3. The Response rate (breast cancer; regimen 135/3) was 22%, the “Survival, median” value (breast cancer; regimen 135/3) was 10.5 months and the “Time to Progression, median” value (breast cancer; regimen 135/3) was 3.0 months. The Response rate (breast cancer; regimen 175/3) was 28%, the “Survival, median” value (breast cancer; regimen 175/3) was 11.7 months and the “Time to Progression, median” value (breast cancer; regimen 175/3) was 4.2 months. The “final volume of the tumor” value (4T1 murine breast cancer; 4T1, day 27 post-implant, i.v. 2 times per week for 2 weeks, total dose of TAXOL® 32 μg/kg, n=6) was 1.70±0.42 ×103 mm3, the “tumor growth inhibition (TGI) rate” value (4T1 murine breast cancer; 4T1, end of study, identical dose of TAXOL® (8 μg/kg per injection), n=6) was 26.2±1.2% and the “nodules in the lung (metastasis of 4T1 tumor)” value (4T1 murine breast cancer; 4T1-bearing mice, day 27 post-implant) was “nodules were widely located in the lung”. The TGI (B16 melanoma; B16) was 47.3±1.2% and the “tumor volume on the final day” value (B16 melanoma; B16-bearing C57BL/6 mice, total dose of TAXOL® 32 μg/kg, n=6) was 1.29±0.50 ×103 mm3.

Source: patent US20230065416A1, “CLATHRIN-CHIMETIC ANTIBODY RECEPTOR CONSTRUCTS FOR IMMUNE CELL ACTIVATION THERAPY IN VIVO” (NANOTOMER, INC., priority 2020, published 2023)
